Laboratory results from the NIST ThermoML archive (doi:10.1021/je060228n).
± gives the expanded uncertainty stated by the source.

Assays:
[1] = xn = mol fraction of the nth substance listed; settings: 101 kPa, Liquid
[2] = refractive index (Na D-line) (dimensionless); xn = mol fraction of the nth substance listed; settings: 298.15 K, 101 kPa, Liquid
[3] = refractive index (Na D-line) (dimensionless); settings: 101.33 kPa, Liquid
[4] = for mass density / speed of sound / viscosity: Liquid; for surface tension liquid-gas: Drop weight

CCOS(=O)(=O)[O-].CCn1cc[n+](C)c1 [1-ethyl-3-methylimidazolium ethyl sulfate] + CCO
[1]
Settings | mass density, 298.15 K [kg/m3] | mass density, 313.15 K [kg/m3] | mass density, 328.15 K [kg/m3] | speed of sound, 298.15 K [m/s] | speed of sound, 313.15 K [m/s] | speed of sound, 328.15 K [m/s] | viscosity, 298.15 K [mPa·s] | viscosity, 313.15 K [mPa·s] | viscosity, 328.15 K [mPa·s]
x2 = 0 | 1237.63 ± 1.3 | 1227.51 ± 1.3 | 1217.47 ± 1.2 | 1679 ± 13 | 1641.6 ± 13 | 1604.5 ± 12 | 97.58 ± 4.5 | 50.01 ± 0.52 | 29.18 ± 0.58
x2 = 0.0623 | 1228.9 ± 1.2 | 1218.87 ± 1.2 | 1208.77 ± 1.2 | 1669.8 ± 13 | 1633.6 ± 13 | 1594.8 ± 12 | 79.12 ± 2.6 | 42.18 ± 0.8 | 25.36 ± 0.49
x2 = 0.23 | 1201.26 ± 1.1 | 1191.17 ± 1 | 1181.01 ± 1 | 1626.6 ± 13 | 1590.1 ± 12 | 1551 ± 12 | 44.93 ± 0.81 | 26.19 ± 0.49 | 16.84 ± 0.32
x2 = 0.4113 | 1161.68 ± 0.88 | 1151.32 ± 0.85 | 1140.94 ± 0.81 | 1564 ± 12 | 1527.7 ± 12 | 1488.2 ± 12 | 22.96 ± 0.42 | 14.72 ± 0.28 | 10.14 ± 0.2
x2 = 0.5393 | 1123.63 ± 0.73 | 1113 ± 0.7 | 1102.3 ± 0.67 | 1506.5 ± 12 | 1459.1 ± 12 | 1431.1 ± 11 | 13.58 ± 0.26 | 8.577 ± 0.17 | 6.204 ± 0.13
x2 = 0.6788 | 1066.7 ± 0.52 | 1055.7 ± 0.49 | 1044.7 ± 0.46 | 1428.8 ± 11 | 1381 ± 11 | 1350.7 ± 11 | 7.224 ± 0.15 | 5.208 ± 0.12 | 3.934 ± 0.089
x2 = 0.7662 | 1017.9 ± 0.36 | 1006.6 ± 0.33 | 995.2 ± 0.33 | 1367.2 ± 11 | 1318.9 ± 11 | 1286.7 ± 10 | 4.598 ± 0.1 | 3.413 ± 0.077 | 2.642 ± 0.061
x2 = 0.8303 | 973 ± 0.39 | 961.3 ± 0.4 | 949.6 ± 0.46 | 1315.6 ± 11 | 1266.2 ± 10 | 1232.2 ± 10 | 3.178 ± 0.072 | 2.398 ± 0.055 | 1.874 ± 0.044
x2 = 0.9554 | 848.6 ± 0.73 | 836.2 ± 0.8 | 823.5 ± 0.8 | 1195.9 ± 9.9 | 1143.3 ± 9.6 | 1102.6 ± 9.3 | 1.573 ± 0.037 | 1.2 ± 0.029 | 0.941 ± 0.025
x2 = 0.964 | 837.4 ± 0.77 | 824.7 ± 0.8 | 812 ± 0.8 | 1186.2 ± 9.8 | 1132.7 ± 9.5 | 1091.4 ± 9.2 | 1.427 ± 0.034 | 1.095 ± 0.027 | 0.862 ± 0.023
x2 = 0.9863 | 806.1 ± 0.86 | 793.4 ± 0.9 | 780.3 ± 0.9 | 1160.7 ± 9.7 | 1106.2 ± 9.3 | 1063.1 ± 9.1 | 1.271 ± 0.031 | 0.971 ± 0.025 | 0.759 ± 0.022

[2]
Settings | refractive index
x2 = 0 | 1.4794 ± 0.0014
x2 = 0.0623 | 1.47717 ± 0.0014
x2 = 0.23 | 1.47031 ± 0.0014
x2 = 0.4113 | 1.46017 ± 0.0014
x2 = 0.5393 | 1.45018 ± 0.0014
x2 = 0.6788 | 1.43532 ± 0.0014
x2 = 0.7662 | 1.42247 ± 0.0014
x2 = 0.8303 | 1.41052 ± 0.0014
x2 = 0.9554 | 1.37687 ± 0.0014
x2 = 0.964 | 1.37373 ± 0.0014
x2 = 0.9863 | 1.36514 ± 0.0014

CCO [ethanol] + CCOS(=O)(=O)[O-].CCn1cc[n+](C)c1
[1], x1 = 1
Settings | mass density [kg/m3] | speed of sound [m/s] | viscosity [mPa·s]
298.15 K | 785.46 ± 0.92 | 1146.3 ± 9.6 | 1.082 ± 0.027
313.15 K | 772 ± 1 | 1092.8 ± 9.3 | 0.827 ± 0.023
328.15 K | 758.6 ± 1 | 1043.2 ± 9 | 0.641 ± 0.02

Settings | refractive index
[2], x1 = 1 | 1.36023 ± 0.0014

CCO [ethanol]
Settings | refractive index
[3], 298.15 K | 1.36023 ± 0.0014

[4], 101 kPa
Settings | mass density [kg/m3] | speed of sound [m/s] | viscosity [mPa·s]
298.15 K | 785.46 ± 0.92 | 1146.3 ± 9.6 | 1.082 ± 0.027
313.15 K | 772 ± 1 | 1092.8 ± 9.3 | 0.827 ± 0.023
328.15 K | 758.6 ± 1 | 1043.2 ± 9 | 0.641 ± 0.02

CCOS(=O)(=O)[O-].CCn1cc[n+](C)c1 [1-ethyl-3-methylimidazolium ethyl sulfate]
Settings | refractive index, [3] | surface tension liquid-gas, [4] [mN/m]
288.15 K | 1.48197 ± 0.0013 | 47.91 ± 0.35
293.15 K | 1.48072 ± 0.0013 | 47.39 ± 0.35
298.15 K | 1.4794 ± 0.0013 | 46.96 ± 0.35
303.15 K | 1.47803 ± 0.0013 | 46.58 ± 0.34
308.15 K | 1.47669 ± 0.0013 | 46.23 ± 0.34
313.15 K | 1.47535 ± 0.0013 | 45.84 ± 0.34
318.15 K | 1.47397 ± 0.0013 | –
323.15 K | 1.47259 ± 0.0013 | –
328.15 K | 1.47124 ± 0.0013 | –
333.15 K | 1.46989 ± 0.0013 | –
338.15 K | 1.46851 ± 0.0013 | –
343.15 K | 1.46718 ± 0.0013 | –

[4], 101.33 kPa
Settings | mass density [kg/m3] | speed of sound [m/s] | viscosity [mPa·s]
288.15 K | 1244.46 ± 1.3 | 1703.9 ± 13 | –
293.15 K | 1241 ± 1.3 | 1691.4 ± 13 | –
298.15 K | 1237.63 ± 1.3 | 1679 ± 13 | 97.58 ± 4.6
303.15 K | 1234.25 ± 1.3 | 1666.6 ± 13 | 76.67 ± 2.4
308.15 K | 1230.88 ± 1.3 | 1654 ± 13 | 61.71 ± 1.1
313.15 K | 1227.51 ± 1.3 | 1641.6 ± 13 | 50.01 ± 0.48
318.15 K | 1224.15 ± 1.3 | 1629.2 ± 13 | 41.37 ± 0.77
323.15 K | 1220.8 ± 1.2 | 1616.8 ± 12 | 34.46 ± 0.64
328.15 K | 1217.47 ± 1.2 | 1604.5 ± 12 | 29.18 ± 0.54
333.15 K | 1214.31 ± 1.2 | 1591.3 ± 12 | 24.96 ± 0.46
338.15 K | 1210.82 ± 1.2 | 1578.9 ± 12 | 21.45 ± 0.4
343.15 K | 1207.51 ± 1.2 | 1566.4 ± 12 | 18.72 ± 0.35

O [water] + CCOS(=O)(=O)[O-].CCn1cc[n+](C)c1
[1], x1 = 1
Settings | mass density [kg/m3] | speed of sound [m/s] | viscosity [mPa·s]
298.15 K | – | – | 0.89 ± 0.024
313.15 K | – | – | 0.653 ± 0.02
328.15 K | 985.7 ± 0.3 | 1545.4 ± 12 | 0.504 ± 0.018

Settings | refractive index
[2], x1 = 1 | 1.33251 ± 0.0014
